Reference: patent US12576052B2, “Metformin inhalation powder aerosol for treating idiopathic pulmonary fibrosis and preparation method thereof” (Wenzhou Medical University, priority 2022, dated 2026)

What was measured:
[1] = mouse, in vivo
Description: (§1) According to the experimental results and the conversion rules of equivalent dose between different species (as shown in table 3), the no observable adverse effect level (NOAEL) of mice is converted into the human equivalent dose HED.
(§2) Among them, NOAEL: no observable adverse effect level dose obtained through animal preclinical toxicology research; HED: human equivalent dose.

[2] = test system: mice with pulmonary fibrosis; assay: Bleomycin-induced pulmonary fibrosis mouse model: body weight, macroscopic lung damage, HE and Masson staining; assay type: in vivo, C57BL6 mice; conditions: inhalation powder aerosol of Embodiment 2, 5 mg per mouse every day for 3 weeks
Description: Establishment of pulmonary fibrosis model: C57BL6 mice aged 6-8 weeks are selected and adapted for one week. Bleomycin (3 mg/kg/50 μl) is given orally to mice in BLM group and BLM+Met group on the first day, and the dry powder of bleomycin is prepared to the required concentration with sterile phosphate buffer saline non-surgical method of bleomycin orally injected into mice's lungs: mice are anesthetized with isoflurane and hung on the operating board at 70°. Bleomycin is dripped orally using a 200 μl pipette).
Dosage of inhaled metformin: the reference value of local administration concentration of metformin in upper respiratory tract is 200 mg/kg. According to the weight of 25 g per mouse, each mouse inhales 5 mg of metformin inhalation powder aerosol in Embodiment 2 every day for 3 weeks.
Weighing: weights of the mice are weighed at a fixed time every morning and recorded, and the changes of mice's weight are observed at different times in each group.
Hematoxylin Eosin (HE) staining and Masson staining: the lung tissue of mice is fixed in 4% paraformaldehyde for 24 hours, washed overnight with running water, dehydrated by conventional alcohol, embedded in paraffin, cut into 5-micron slides, stained with HE and Masson, and sealed with neutral gum after applying xylene for transparency. The pathological changes of lung are observed under optical microscope and photos are taken.
Statistical analysis: the experimental data of each group are statistically analyzed by GraphpadPrism9.0 software. All the experimental data are tested for normality, and the measurement data are expressed as mean±standard deviation. The mean of multiple groups of samples is compared by One-way Analysis of Variance (one-way ANOVA). P<0.05 is statistically significant. The results are shown in FIG. 5A, FIG. 5B, FIG. 6 and FIG. 7.

[3] = NOAEL of mice and conversion into human equivalent dose (HED)
Description: as §1, §2

α-SMA = α-SMA immunofluorescence of lung tissue in bleomycin-induced pulmonary fibrosis mice; assay type: in vivo, C57BL6 mice; conditions: BLM+Met vs BLM group; inhalation powder aerosol of Embodiment 2, 5 mg per mouse every day for 3 weeks; FIG. 7
Description: Among them, BLM: bleomycin-induced pulmonary fibrosis mouse model group; BLM+Met: the effect of atomization inhalation of metformin on macroscopic damage of lung in mice with pulmonary fibrosis.
Dosage of inhaled metformin: the reference value of local administration concentration of metformin in upper respiratory tract is 200 mg/kg. […]
α-SMA immunofluorescence: lung tissue slides are dried at 65° C., dewaxed with xylene and dehydrated with gradient alcohol. […] The slides are sealed and the fluorescence intensity is observed under a fluorescence microscope.
Statistical analysis: the experimental data of each group are statistically analyzed by GraphpadPrism9.0 software. All the experimental data are tested for normality, and the measurement data are expressed as mean±standard deviation. […]

IPF patients = conditions: after 52 weeks of treatment; cited from earlier work

CN(C)C(=N)N=C(N)N [Metformin, metformin]
maximum recommended initial inhalation dose for the first human study [1]: 97.8 mg | alveolar structure (Masson and HE staining) ([2]; BLM+Met group, FIG. 6): complete | inflammatory cells in alveolar cavity and alveolar septum ([2]; BLM+Met group, FIG. 6): no obvious inflammatory cells | body weight of mice with pulmonary fibrosis ([2]; BLM+Met vs BLM group, FIG. 5A): decreased | macroscopic damage of lung ([2]; BLM+Met vs BLM group, FIG. 5B): pink, with smooth surface and elastic touch | collagen fibers (Masson and HE staining) ([2]; BLM+Met vs BLM group, FIG. 6): significantly reduced | degree of fibrosis (Masson and HE staining) ([2]; BLM+Met vs BLM group, FIG. 6): significantly improved | NOAEL at 3 weeks ([3]; C57BL6, mouse, in vivo, inhaled or intranasal, 200 mg/kg): 200 mg/kg | HED (human equivalent dose) ([3]; NOAEL of mice/12.3): 16.3 mg/kg | expression of α-SMA (immunofluorescence) (α-SMA): decreased significantly

Cc1ccc(=O)n(-c2ccccc2)c1 [pirfenidone]
disease progression of IPF patients (IPF patients): effectively slow down the disease progression
